According to patent US20170153257A1, “METHODS OF ESTIMATING LOGD OF TAGGED COMBINATORIAL LIBRARY COMPOUNDS” (DiCE Molecules SV, LLC, priority 2015, published 2017):
Entries after “also recorded” stand apart in the source; their conditions may differ. Residues, ends and D or L forms follow the SMILES beside them. {Stearyl} = n-C18 stearyl group added with a stearyl phosphoramidite

Experiment: Gel mobility on standard agarose gel without vesicles
Assay type: physicochemical
Conditions: ligand attached to 5′ end of DNA; 1.5% agarose, no vesicles; FIG. 1
Method: Low melt agarose gels (standard 1× TBE, 1.5% agarose), without vesicles were prepared by conventional methods (Molecular Cloning: a Laboratory Manual, T. Maniatis, E. F. Fritsch & J. Sambrook (1982)).
After the gels have solidified, samples are loaded, run at 100 volts, stained with ethidium bromide and photographed by standard methods (Molecular Cloning; Maniatis et al.; Cold Spring Harbor press, 1982).

Row | Compound | mobility on standard agarose gel
1 | Compound 1: stearyl (n-C18H37) group attached to 5′ end of DNA oligonucleotide X (SEQ. ID. No. 1) (DNA GCTCGTCGCATTCGGCACGC; DNA, 5' {Stearyl}, backbone and methylation of C not given here; further chemistry not fully specified) | modestly retarded

Experiment: Gel mobility on agarose gel containing 0.9% CTAB/SOS vesicles
Assay type: physicochemical
Conditions: ligand attached to 5′ end of DNA; 1.5% agarose, 0.9% (w/v) CTAB/SOS vesicles; relative to reference gels lacking vesicles; FIG. 2
Method: Vesicles are prepared essentially as described by Pascoe et al., Electrophoresis 2003, 24: 4227-4240. Briefly, 0.45 gm of CTAB/SOS (CTAB=hexadecyltrimethylammonium bromide, Sigma catalogue #H9151; SOS=sodium octyl sulfate. Sigma catalogue #O4003)) at a ratio of 3:7 is dissolved in 1× TBE [Trisma-borate-EDTA electrophoresis buffer, Maniatis et al., p. 454] and heated to 50° C. in a water bath to assure dissolution. The solution is cooled overnight to room temperature and then filtered through a 0.2 micron filter. Vesicles prepared in this manner are reported to be stable for multiple days at room temperature.
Low melting agarose (0.75 gm) is dissolved in 25 mL 1× TBE and placed in a water bath at 50° C. along with a separate tube of vesicles. After equilibrium is reached, the tubes are mixed in a preheated flask, gently swirled and poured into a standard horizontal mini-gel apparatus to provide a vesicle agarose gel ((standard 1× TBE, 1.5% agarose, 0.9%). […]
FAM is 5′-6-FAM (Fluorescein). The 6-FAM moiety is comprised of a single isomer derivative of fluorescein and is the most commonly used fluorescent dye attachment for oligonucleotides and is compatible with most fluorescence detection equipment. It becomes protonated and has decreased fluorescence below pH 7; it is typically used in the pH range 7.5-8.5. […]

Row | Compound | mobility on agarose gel with vesicles
2 | Compound 1: stearyl (n-C18H37) group attached to 5′ end of DNA oligonucleotide X (SEQ. ID. No. 1) (DNA GCTCGTCGCATTCGGCACGC; DNA, 5' {Stearyl}, backbone and methylation of C not given here; further chemistry not fully specified) | greatly retard the mobility; also recorded: retarded

Experiment: eLogD by shake flask method in aqueous buffer/octanol mixture
Conditions: linear peptides, N terminal acetylated and C terminal amide; pH 7.4, octanol-water
Source text: “eLogD,” as used herein, refers to a determination of LogD by shake flask method in aqueous buffer/octanol mixture.
“LogD(pH),” as used herein, refers to a distribution of a compound between aqueous buffer and octanol at a given pH. Unless otherwise stated, the pH is assumed to be 7.4 and be written as LogD.

Row | Compound | eLogD (7.4)
3 | CC(=O)N[C@@H](C)C(=O)N[C@@H](Cc1ccc(O)cc1)C(=O)N[C@@H](CC(C)C)C(N)=O [AYL] (Ac-Ala-Tyr-Leu-NH2) | −0.06
4 | CC[C@H](C)[C@H](NC(=O)[C@H](CCC(=O)O)NC(C)=O)C(=O)N[C@@H](Cc1ccccc1)C(N)=O [EIF (D718)] (Ac-Glu-Ile-Phe-NH2) | −2.30
5 | CC[C@H](C)[C@H](NC(C)=O)C(=O)N[C@@H](Cc1ccccc1)C(=O)N[C@@H](C)C(N)=O [IFA] (Ac-Ile-Phe-Ala-NH2) | 0.46
6 | CC[C@H](C)[C@H](NC(C)=O)C(=O)N[C@@H](CCSC)C(=O)N[C@@H](Cc1ccccc1)C(N)=O [IMF] (Ac-Ile-Met-Phe-NH2) | 1.25
7 | CC(=O)N[C@@H](CCCNC(=N)N)C(=O)N[C@@H](Cc1ccccc1)C(=O)N[C@@H](CC(C)C)C(N)=O [RFL] (Ac-Arg-Phe-Leu-NH2) | −1.12
8 | CC[C@H](C)[C@H](NC(=O)[C@H](CC(C)C)NC(=O)[C@H](CO)NC(C)=O)C(N)=O [SLI] (Ac-Ser-Leu-Ile-NH2) | −0.06
9 | CC(=O)N[C@@H](Cc1c[nH]c2ccccc12)C(=O)NCC(=O)NCC(N)=O [WGG] (Ac-Trp-Gly-Gly-NH2) | −0.80
10 | Ac-ALLGF-NH2 [ALLGF] | 1.05
11 | Ac-YTGFL-NH2 [YTGFL] | 0.57

Experiment: Reverse phase HPLC of steroids linked to a 220 base pair oligonucleotide (Agilent AdvanceBio Oligonucleotide column)
Assay type: physicochemical
Conditions: 220 base pair conjugates, acetonitrile/10 mM ammonium acetate gradient
Method: HPLC purified 20 base pair single stranded oligomers operatively linked to alkyl or steroid ligands were transformed into a double stranded 220 base pair gene via polymerase chain reaction (PCR). The oligomers operatively linked to alkyl or steroid ligands and a 20 base pair reverse oligomer (1 uM) were used as PCR primers in a 100 uL reaction with 10 ng of double stranded 220 base pair gene template with 2× Fusion Flash High-Fidelity PCR Master Mix (ThermoFisher F548S). Thermocycling was performed at 98 C.° for 10 s, followed by 10 cycles of 98 C°, 1 s, 55 C°, 5 s, 72 C°, 10 s then followed by an additional protocol of 98 C.° for 10 s followed by 15 cycles of 98 C°, 1 s, 50 C°, 5 s, 72 C°, 10 s. PCR products of 220 base pair were confirmed via gel electrophoresis, purified with the QIAquick PCR Purification Kit (Qiagen) and DNA concentration was quantified via nanodrop A260 measurements.
Compounds 18-24, prepared as described in Example 10 from the analogous 20 base pair oligomers were run on a reverse phase HPLC column, using an Agilent AdvanceBio Oligonucleotide column and acetonitrile/ammonium acetate gradient. […] Without wishing to be bound by theory, inclusion of appropriate standard compounds may provide useful surrogates of absolute values of log D. It should be also noted that chromLogD and Chrom20LogD may be determined by extensions of the above experiment.

Row | Compound | resolution / elution by reversed phase HPLC
12 | acetate | eluting in the void volume
